We go through 6 molecules from US8153165B2, “Preparation and use for reducing the damaging effect of ammonia on organisms living in water” (Tetra GmbH, priority 2006, dated 2012).

Data set [1] deals with types of fish common in aquariums (acute toxicity of ammonia). As to the kind of experiment: Behavior of aquarium fish in water with 1000 μmol/l of total ammonia, with and without preparation. In kind it is in vivo. Particulars: for reduction of the acute toxicity of ammonia in water animals, in particular ornamental fish: in vivo. From the text: In aquariums holding 50 liters, the aquarium water was set to the following values:
Metered addition of a NH4Cl solution set to pH 8.2 predetermined a total ammonia concentration of 1000 μmol/l.
The aquariums were stocked with types of fish common in aquariums: • Xiphosphorus maculatus • Brachydanio rerio • Paracheirodon innesi • Rasbora heteromorpha • Colisa lalia • Papiliochromis ramirezi • Melanochromis splendida • Megalamphodus sweglesi • Corydoras spec
Only about 30% of the test fish behaved normal. […] The behavioral pattern observed persisted over 48-72 h, i.e. 2-3 days.
In the following tables, the average values of the behavior of all types of fish are represented averaged depending on the time and dose of glyoxal.2NaHSO3: (Comparison: control with 1000 μmol/l of total ammonia without treatment)

For data set [2], the system named is fish and other water organisms. As to the kind of experiment: Compatibility of the adduct alone. Type of data set: in vivo. As for the experimental part: The adduct alone is very well compatible for fish and other water organisms up to high concentrations of 140 mg/l.
The nature of data set [3]: Stability of liquid product formulations. Type of data set: physicochemical. Particulars: extended pH range between pH 3 and 9.
A short description of data set [4]: Chemical changes in the keeping water (pH, carbonate hardness). Type of data set: physicochemical. From the text: The positive effect may originate from the preparation itself, wherein, for example glyoxal.2NaHSO3 acts as a protecting agent in the gill area. The second possibility is an indirect effect by influencing the water chemistry, which again results in a shift of the NH3/NH4^+ equilibrium. Glyoxal-2NaHSO3 causes two different chemical changes in the keeping water:
1. pH reduction by up to 0.5 units, which persists considerably longer than with state of the art preparations and products, for example a reduction by 0.3 pH units up to 72 hours following the dose.
2. […] This surprising chemical behavior, too, is not found with state of the art products or preparations.

For data set [5] the following is noted: NH3 concentration ranges common in keeping water; cited from earlier work.

Each structure is given as a SMILES string.

For the molecule `O=S(=O)([O-])C(O)CCCC(O)S(=O)(=O)[O-].[Na+].[Na+]` (centres unmarked) [NaHSO3 bisadduct of glutardialdehyde], in data set [1], the “reduction of the acute toxicity of ammonia in water animals, in particular ornamental fish” value (from here on “reduction … in particular ornamental fish”) is “especially effective”.

Turning to `O=S(=O)([O-])C(O)CC(O)S(=O)(=O)[O-].[Na+].[Na+]` (centres unmarked) [NaHSO3 bisadduct of malondialdehyde], in data set [1], the “reduction … in particular ornamental fish” value is on record as “show the desired reduction of the acute toxicity of ammonia”.

`O=S(=O)([O-])C(O)CCC(O)S(=O)(=O)[O-].[Na+].[Na+]` (centres unmarked) [NaHSO3 bisadduct of succindialdehyde]: the “reduction … in particular ornamental fish” value in data set [1] was “show the desired reduction of the acute toxicity of ammonia”.

As for `O=S(=O)([O-])C(O)CO.[Na+]` (centres unmarked) [NaHSO3 monoadduct of glycolaldehyde], in data set [1], the “reduction … in particular ornamental fish” value is recorded as “show the desired reduction of the acute toxicity of ammonia”.

Consider `O=S(=O)([O-])C(O)C(O)S(=O)(=O)[O-].[Na+].[Na+]` (centres unmarked) [glyoxal•2NaHSO3, NaHSO3 bisadduct of glyoxal], for which the “behavior of the test fish following addition of the preparation” value in data set [1] (1000 μmol/l of total ammonia, only about 30% normal without preparation) is “the majority of the test fish behaved normal and showed no signs of damage by ammonia”. The “Normal behavior show % of the test fish” value in data set [1] (Table A, 35 mg/l single dose, 0 hrs (before dose), 1000 μmol/l total ammonia) is reported as 89%; in data set [1] (Table A, 35 mg/l single dose, 2 hrs), 67%; in data set [1] (Table A, 35 mg/l single dose, 5 hrs) it was 67%; in data set [1] (Table A, 35 mg/l single dose, 9 hrs) it was 67%; in data set [1] (Table A, 35 mg/l single dose, 23 hrs) it was 56%; in data set [1] (Table A, 35 mg/l single dose, 29 hrs) it was 67%. Also, the “Normal behavior show % of the test fish” value in data set [1] (Table A, 35 mg/l single dose, 46 hrs) worked out at 67%; in data set [1] (Table A, 35 mg/l single dose, 54 hrs), 56%; in data set [1] (Table A, 35 mg/l single dose, 72 hrs), 44%; in data set [1] (Table B, 130 mg/l single dose, 0 hrs (before dose), 1000 μmol/l total ammonia), 100%; in data set [1] (Table B, 130 mg/l single dose, 2 hrs) it was 78%; in data set [1] (Table B, 130 mg/l single dose, 4 hrs), 78%. Also, the “Normal behavior show % of the test fish” value amounted to 78% in data set [1] (Table B, 130 mg/l single dose, 8 hrs); 78% in data set [1] (Table B, 130 mg/l single dose, 24 hrs); 100% in data set [1] (Table B, 130 mg/l single dose, 48 hrs); 100% in data set [1] (Table C, three-time dose 35 mg/l every 72 hours, 0 hrs (before doses)); 78% in data set [1] (Table C, three-time dose 35 mg/l every 72 hours, 2 hrs); 78% in data set [1] (Table C, three-time dose 35 mg/l every 72 hours, 4 hrs). Also, the “Normal behavior show % of the test fish” value in data set [1] (Table C, three-time dose 35 mg/l every 72 hours, 5 hrs) is 78%; in data set [1] (Table C, three-time dose 35 mg/l every 72 hours, 24 hrs) it was 67%; in data set [1] (Table C, three-time dose 35 mg/l every 72 hours, 72 hrs (before 2nd dose)) it was 78%; in data set [1] (Table C, three-time dose 35 mg/l every 72 hours, 74 hrs), 67%; in data set [1] (Table C, three-time dose 35 mg/l every 72 hours, 96 hrs), 89%; in data set [1] (Table C, three-time dose 35 mg/l every 72 hours, 5 days after the 3rd dose (i.e. 11 days)), 89%. Moreover, the “Normal behavior show % of the test fish” value stood at 89% in data set [1] (Table C, three-time dose 35 mg/l every 72 hours, 120 hrs); 89% in data set [1] (Table C, three-time dose 35 mg/l every 72 hours, 144 hrs (before 3rd dose)); 100% in data set [1] (Table C, three-time dose 35 mg/l every 72 hours, 145 hrs); 89% in data set [1] (Table C, three-time dose 35 mg/l every 72 hours, 168 hrs); 100% in data set [1] (Table C, three-time dose 35 mg/l every 72 hours, 192 hrs); 89% in data set [1] (Table D comparison, glyoxal•2NaHSO3 35 mg/l, product doses not given, 0 hrs (before dose)). Also, the “Normal behavior show % of the test fish” value in data set [1] (Table D comparison, glyoxal•2NaHSO3 35 mg/l, product doses not given, 2 hrs) worked out at 67%; in data set [1] (Table D comparison, glyoxal•2NaHSO3 35 mg/l, product doses not given, 5 hrs), 67%; in data set [1] (Table D comparison, glyoxal•2NaHSO3 35 mg/l, product doses not given, 8.5 hrs), 67%; in data set [1] (Table D comparison, glyoxal•2NaHSO3 35 mg/l, product doses not given, 22.5 hrs), 56%; in data set [1] (Table D comparison, glyoxal•2NaHSO3 35 mg/l, product doses not given, 29 hrs) it was 67%; in data set [1] (Table D comparison, glyoxal•2NaHSO3 35 mg/l, product doses not given, 46 hrs), 67%. Besides, the “Normal behavior show % of the test fish” value in data set [1] (Table D comparison, glyoxal•2NaHSO3 35 mg/l, product doses not given, 54 hrs) was determined as 56%; in data set [1] (Table D comparison, glyoxal•2NaHSO3 35 mg/l, product doses not given, 72 hrs) it was 44%. For the same molecule, the “percentage of test fish with normal behavior versus control without treatment” value in data set [1] (during the first 48 hours, 35 mg/l and 130 mg/l) is reported as “significantly higher percentage of the test fish shows normal behavior than in the control test”. In addition, the “reduction … in particular ornamental fish” value in data set [1] is “especially effective”. The “acute toxicity of ammonia to fish” value in data set [1] (on addition of 5-140 mg/l, preferably 10-50 mg/l) is “clearly reduced”. In data set [1] (single dose, 1000 μmol/l of total ammonia), the “time over which the behavioral pattern observed persisted” value fell in the range of 48 to 72 h. For the same molecule, the “concentration up to which the adduct alone is very well compatible for fish and other water organisms” value in data set [2] is not above 140 µg/mL. For the same molecule, the “stability of the liquid product formulations” value in data set [3] is “good stability”. For the same molecule, the “time after which the carbonate hardness reduction sets in” value in data set [4] was “about 24 hours”. Further, in data set [4], the “time the carbonate hardness reduction lasts” value is given as “up to 72 hours”. In data set [4] (keeping water), the “Reduction of the carbonate hardness” value is 0.5-0.60 dH. Besides, the “pH reduction in the keeping water” value in data set [4] (maximum) was “up to 0.5 units”; in data set [4] (up to 72 hours following the dose), 0.3 pH units.

As for `O=S(=O)([O-])CO.[Na+]` [sodium hydroxymethanesulfonate], in data set [5], the “reduction in the ammonia concentration” value is “Neither a reduction in the ammonia concentration” and the “reduction of the NH3 toxicity” value is listed as “nor a, however disposed, reduction of the NH3 toxicity could be observed”.
